Measurements: PMC5573973 (Advanced Synthesis & Catalysis, 2017)
One block for each compound: values may come before it.

Experiments:
PAL [1] = conditions: cited from earlier work
Y110F mutant of PcPAL = Y110F mutant of PcPAL (Petroselinum crispum, UniProt P24481, Y110F); experiment: Isothermal titration calorimetry with Y110F-PcPAL; assay type: binding; conditions: for Kd: PcPAL_Y110F K d, ITC, pH 8.0, 30 °C
[2] = target: T1, PAL from Petroselinum crispum (PcPAL) (Petroselinum crispum, UniProt P24481); experiment: Steady-state inhibition kinetics of PcPAL-catalyzed deamination of L-Phe; assay type: biochemical
[3] = target: T1, PAL from Petroselinum crispum (PcPAL); conditions: with PcPAL; cited from earlier work
PAL [4] = conditions: cited from earlier work; remark: listed apart in the source
Pseudomonas putida HAL = conditions: 9 mM, incubation for 120 min in the presence of oxygen; cited from earlier work

Compound: N[C@@H](Cc1ccccc1)C(=O)O [(S)‐1, L‐phenylalanine]
- Rate of ammonia elimination relative to D-phenylalanine (PAL [1]): more than 4500 times
- Kd (Y110F mutant of PcPAL): 23 µM

- Ki [2]: > 1000 µM
- Type of inhibition ([2]; best fitting inhibition model to the experimental data): No inh.
- Inhibition with PcPAL ([2]; up to 1 mM concentration): no measurable inhibition
Compound: NC(C1(c2ccccc2)CC1)P(=O)(O)O.O (racemic) [(±)‐6, 1-Amino-1-(1-phenylcyclopropyl)methyl-phosphonic acid hydrate]

Compound: NC1(P(=O)(O)O)Cc2ccccc2C1 [AIP, 2‐aminoindan‐2‐phosphonic acid]
- Slow binding behavior [3]: one‐step slow binding mechanism
- Ki (PAL [4]): 0.025 µM

Compound: NO[C@@H](Cc1ccccc1)C(=O)O [AOPP, (S)‐2‐aminooxy‐3‐phenylpropanoic acid]
- Ki (PAL [4]): 0.00038 µM

Compound: N[C@@H](CCS)C(=O)O [L‐homocysteine]
- Inhibition of HAL (Pseudomonas putida HAL): irreversibly inhibited

Compound: N[C@H](Cc1ccccc1)C(=O)O [(R)‐1, D‐phenylalanine]
- Kd (Y110F mutant of PcPAL): 29.1 µM
- ΔΔG (Y110F mutant of PcPAL; ΔΔG=ΔG wt−ΔG Y110F, contribution of the hydroxy group of Tyr110): -0.5 kcal/mol
- Type of inhibition (PAL [4]): competitive inhibitor
